Patent publication US20250262139A1, “POLYPEPTIDES AND METHODS FOR IMPROVING SKIN CONDITIONS” (INTERK PEPTIDE THERAPEUTICS LIMITED, priority 2020, published 2025)
Where no end group is shown, it is not given here.

Key:
dermal fibroblasts = assay: TBARS lipid peroxidation assay, UV-irradiated dermal fibroblasts; assay type: cell-based; conditions: IK-3 at the highest concentration (5 μM); 1,25D
Method: The ability of the polypeptide RSKAKNPLYRRRRRRRRR to alter UV-induced oxidative damage of cell-derived lipids was examined using the TBARS thiobarbituric acid-reactive substances (TBARS) lipid peroxidation assay.
After irradiation or sham-irradiation of dermal fibroblasts, supernatants (900 μL) were collected. In brief, 90 μL of butylated hydroxytoluene (2% w/w in ethanol) was added and samples kept frozen (−20° C.) until the TBARS assay. Petri dishes were washed twice with 1 mL of HBSS, cells scraped in 600 μL of water and 60 μL of 0.5% aqueous Triton X100 added to this solution, for protein determination carried out by the Lowry method (Lowry O H et al, J. Biol. Chem., 1951, 193:265-275). TBARS were fluorometrically assayed as described (Morlière P et al, Biochim. Biophys. Acta, 1991, 1084:261-268). Briefly, thawing samples were heated in the presence of thiobarbituric acid in acidic conditions, and TBARS extracted with 1-butanol and fluorometrically quantified (λexc=515 nm and Aem=550 nm). Tetraethoxypropane, which quantitatively yields the malondialdehyde-thiobarbituric acid adduct in the assay conditions, was used for calibration. TBARS values, expressed in malondialdehyde (MDA) equivalents, were normalized to the cell protein for each Petri dish. Each TBARS determination was performed in triplicate (e.g., with three Petri dishes per data point).

primary keratinocytes [1] = assay: CPD detection by IHC in keratinocytes 3 h following UV-irradiation; assay type: cell-based
Method: An in vitro assay was conducted allowing for densitometry analysis of CPD detection by IHC in keratinocytes 3 h following UV-irradiation in accordance with the following protocol.
Keratinocytes were harvested and cultured as described above at Example 2. Samples were split into two groups, being UV irradiated (UVR) and non-UV irradiated (SHAM). UV-irradiation was performed by solar simulated UV-irradiation for cells, also as described above at Example 2. Irradiation solution was PBS containing 5 mM D-glucose. […]
Harvested keratinocytes were plated on poly-D-lysine coated coverslips in 96 well plates and irradiated (or sham treated) as described above in at Example 2 in PBS containing 5 mM D-glucose. Keratinocytes were fixed 3 h after UV-irradiation. Immunohistochemistry and image analysis were performed as described previously (Gordon-Thomson et al., Photochem Photobiol Sci, 2012, 11 (12): 1837-47; Gupta et al., vide supra, Rybchyn M S et al., J Invest Dermatol, 2018; 138 (5): 1146-1156). Thymine dimers were detected using the anti-thymine dimer antibody (Sigma-Aldrich, Missouri, USA) at 10 μg/mL, and quantified as an index of CPD, as previously described (Douki T and Cadet J, Biochemistry, 2001, 40 (8): 2495-501).
Following irradiation, keratinocytes were treated with either Calcitriol, vehicle control (Veh) or the polypeptide IK34720 (SEQ ID NO: 3; “IK”) IK14800; (RSKAKNPLYRRRRRRRRR), RSKAKNPLY (IK94000) and RRRRRRRRR (IK00900), at concentrations of 5 μM.

[2] = tested on: ICR mice, punch skin wound; assay: murine wound model, wound closure; assay type: in vivo; conditions: topical 10 μg per mouse daily for 10 consecutive days; Day 5 to Day 11; vs negative control (PBS)
Description: FIGS. 1 and 2 illustrate the effect of polypeptides IK34720 (SEQ ID NO: 3—RSKAKNPLYRRRRRRRRR) (FIG. 1) and the dextro-reverso sequence IK236770 (SEQ ID NO: 4—rrrrrrrrrylpnkaksr) (FIG. 2), on wound healing over 10 days in a murine wound model in accordance with the following protocol.
Three groups of 8 male ICR mice with a mean weight of 22 g (+2 g) were used in the present study. The animals were housed in individual cages during the study. Under isoflurane gas anaesthesia, the shoulder and back region of each animal was shaved and a sharp punch (ID 12 mm) was used to induce a wound by removing the skin, including panniculus carnosus and adherent tissues on Day 1.
Following induction of the wound the polypeptides IK34720 and IK236770 were topically administered to the site of the wound at a dosage of 10 μg per animal. […] An additional group which comprised the administration of Phosphate buffered Saline (PBS) at pH 7.4 was used as a negative control.
The wound healing was analysed on Days 5, 7, 9 and 11 by tracing the periphery of the wound onto clear plastic sheets with the wound area calculated by an Image analyzer ProPlus (Media Cybernetics, Version 4.5.0.29. The percentage closure of the wound (%) was calculated. Percentage closure of the wound was determined on 5, 7, 9 and 11. ANOVA and Dunnett's test were applied to test significant significance between the treated groups (peptide and positive control groups) and the negative control group at each time point of measurement. Differences were considered statistically significant at P<0.05, and are indicated by *.

primary keratinocytes [3] = assay: ATP levels, CellTiter-Glo 2.0 Assay, after ssUV; assay type: cell-based; conditions: 1.5 hours after UVR; compared with Calcitriol
Method: The influence of the polypeptide IK34720 (SEQ ID NO: 3) on intracellular ATP following UV exposure was assessed using the following protocol.
Primary keratinocytes were harvested as described above in Example 2 and were either exposed to ssUV-irradiation (UVR), as described above in Example 2 or not irradiated (SHAM), in the presence or absence of Calcitriol (positive control) or polypeptide IK34720 (SEQ ID NO: 3; RSKAKNPLYRRRRRRRRR), at the concentrations described in Example 2.
ATP levels were determined 1.5 hours after UVR using the CellTiter-Glo® 2.0 Assay (Promega, WI, USA) as described previously (Rybchyn et al., vide supra, 2017). All data in FIG. 4 is shown as mean+SD. *p<0.05, **p<0.01. Cells were prepared and irradiated as described above.

MMP1 = MMP1 immunohistochemical staining in UV-irradiated human skin explants; assay type: cell-based
Method: Human skin (2×human explant tissues) removed at elective surgery was cleaned, dissected and cut into pieces of approx. 5 mm×5 mm. Each piece was placed in a well of a 96 well plate, with individual plates prepared to assess the effects 3 hrs post treatment. Skin was subjected to UV-radiation from solar-simulated UV source for 1.5 h (UVR), or non-irradiation (SHAM), and treated immediately after with a vehicle control, Calcitriol (1 nM) or the polypeptide IK34720 (SEQ ID NO: 3) at concentrations of 50 μM, 250 μM or 500 μM. In FIG. 17, IK50, IK250 and IK500 as μM concentrations refers to 15 μg, 75 μg and 150 μg of IK34720 per 120 μL culture medium/explant, respectively.
Samples harvested at 3 hrs were fixed, sectioned, immunohistochemically stained for MMP1 and quantified for MMP1 expression, by expressing epidermal area stained for MMP1 as a function of total epidermal area examined.

[4] = 5 μM after ssUV, fixed 3 h after UV

Sequence: RSKAKNPLYRRRRRRRRR (not fully specified (some residues)) [IK34720]
- significant difference in TRS (TBA reactive substances) between Sham and UV irradiation (dermal fibroblasts): not seen
- CPD levels compared to vehicle-treated UV-irradiated keratinocytes (primary keratinocytes [1]; [4]): statistically significant (*p<0.05) reduction in CPD levels
- reduction in CPD levels compared to Calcitriol (primary keratinocytes [1]; [4]): comparable reduction in CPD levels to keratinocytes treated with Calcitriol
- inhibition of CPD formation (average intensity of CPD staining) compared to 1,25D (primary keratinocytes [1]; 10 μM, FIG. 8B): more effective at inhibiting CPD formation than the positive control 1,25D
- CPD levels, dose response (primary keratinocytes [1]; 0.5, 1, 2.5 or 5 μM after ssUV, fixed 3 h after UV): decreases CPD levels in primary keratinocytes exposed to solar simulated UV-irradiation in a dose dependent manner
- wound closure percentage [2]: statistically significant increase
- ATP levels (primary keratinocytes [3]): enhanced the ATP levels
- percentage of MMP1 positive cells (MMP1; 500 μM, 3 hrs post irradiation): statistically significantly reduced
- cells staining for MMP-1 (MMP1; 3 hrs post irradiation/treatment, Calcitriol 1 nM, IK34720 50, 250 or 500 μM): fewer stained cells
